Measured values reported in paper PMC8511083 (European journal of medicinal chemistry, 2021).

What was measured:
[1] = system: panel of melanoma and breast cancer cell lines; test: Average growth inhibition in panel of melanoma and breast cancer cell lines; format: cell-based; conditions: Homo sapiens, read-out: Average IC50, average of results obtained in all six cell lines
survivin [2] = molecular target: T1, survivin (Homo sapiens, UniProt O15392); test: Western blot of IAPs and cleaved-PARP in A375 cells
OVCAR3 and OVCAR8 cells = test: Average growth inhibition in ovarian cancer cell lines; format: cell-based; conditions: Homo sapiens, read-out: Average IC50
survivin [3] = molecular target: T1, survivin; test: Western blot of survivin in ovarian cancer cells; conditions: OVCAR8, SKOV3 and OVCAR3 cells, 24 hr, 2 and 4 μM
A375 xenograft tumors = test: A375 subcutaneous melanoma xenograft model in NSG mice; format: in vivo, mouse; conditions: 20 mg/kg IP, 3 times/week, 15 days, end of experiment, vs vehicle
[4] = Liver microsome stability assay, human; conditions: human microsomes, 88 vs 51 min
MDA-MB-435/LCC6MDR1 = test: In vitro antiproliferative; format: cell-based; conditions: Homo sapiens, 72 h, read-out: IC50 MDA-MB-435/LCC6MDRI
MDA-MB-435 = test: In vitro antiproliferative; format: cell-based; conditions: Homo sapiens, MDA-MB-435, 72 h, read-out: IC50 MDA-MB-435

T1 sequence (O15392 whole entry): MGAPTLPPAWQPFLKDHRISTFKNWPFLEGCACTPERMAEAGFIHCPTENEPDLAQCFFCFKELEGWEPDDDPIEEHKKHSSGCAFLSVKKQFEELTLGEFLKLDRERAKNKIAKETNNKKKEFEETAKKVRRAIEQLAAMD

IC50 [1] [µM]	SMILES	further results
0.9	CC(C)c1ccc(COCc2cc(-c3cncc4ccccc34)c(O)c3ncccc23)cc1 [Compound 19b, 5-(((4-isopropylbenzyl)oxy)methyl)-7-(isoquinolin-4-yl)quinolin-8-ol]	
1.4	CC(C)c1ccc(COCc2cc(-c3ccnc4ccccc34)c(O)c3ncccc23)cc1 [Compound 19c, 5’-(((4-isopropylbenzyl)oxy)methyl)-[4,7’-biquinolin]-8’-ol]	
1.4	Cc1ccc(-c2cc(COCc3ccc(C(C)C)cc3)c3cccnc3c2O)cc1 [Compound 19d, 5-(((4-isopropylbenzyl)oxy)methyl)-7-(p-tolyl)quinolin-8-ol]	
1.6	Cc1cccc(-c2cc(COCc3ccc(C(C)C)cc3)c3cccnc3c2O)c1 [Compound 19e, 5-(((4-isopropylbenzyl)oxy)methyl)-7-(m-tolyl)quinolin-8-ol]	
1.4	COc1ccc(-c2cc(COCc3ccc(C(C)C)cc3)c3cccnc3c2O)cc1 [Compound 19f, 5-(((4-isopropylbenzyl)oxy)methyl)-7-(4-methoxyphenyl)quinolin-8-ol]	
2.6	CC(C)c1ccc(COCc2cc(-c3ccc(C(F)(F)F)cc3)c(O)c3ncccc23)cc1 [Compound 19g, 5-(((4-isopropylbenzyl)oxy)methyl)-7-(4-(trifluoromethyl)phenyl)quinolin-8-ol]	

Further lines, the molecule ahead of its results:

SMILES	IC50 [1] [µM]	further results
Oc1c(CN2CCCC2)cc(Cn2cnc(-c3ccccc3)c2)c2cccnc12 [Compound 4a, 5-((4-phenyl-1H-imidazol-1-yl)methyl)-7-(pyrrolidin-1-ylmethyl)quinolin-8-ol]	4.2	
Oc1c(CN2CCCC2)cc(COC2Cc3ccccc3C2)c2cccnc12 [Compound 4c, 5-(((2,3-dihydro-1H-inden-2-yl)oxy)methyl)-7-(pyrrolidin-1-ylmethyl)quinolin-8-ol]	2.7	
Oc1c(CN2CCCC2)cc(COC2CCc3ccccc3C2)c2cccnc12 (stereo not shown) [Compound 4d, 7-(pyrrolidin-1-ylmethyl)-5-(((1,2,3,4-tetrahydronaphthalen-2-yl)oxy)methyl)quinolin-8-ol]	1.9	
Oc1c(CN2CCCC2)cc(Cn2ncc(-c3ccc(Br)cc3)n2)c2cccnc12 [Compound 7a, 5-((4-(4-bromophenyl)-2H-1,2,3-triazol-2-yl)methyl)-7-(pyrrolidin-1-ylmethyl)quinolin-8-ol]	2	apoptosis induction (cleaved-PARP, western blot) (survivin [2]; 24 h): effectively induced apoptosis; levels of other IAPs (CIAP1, XIAP, Livin; western blot) (survivin [2]; 24 h, 1, 5 and 10 μM): minimally affected; survivin protein levels (western blot) (survivin [2]; 24 h, 1, 5 and 10 μM): selectively suppressed survivin levels; IC50 (OVCAR3 and OVCAR8 cells): 1.3 µM
Oc1c(CN2CCCC2)cc(Cn2ncc(-c3ccc(C(F)(F)F)cc3)n2)c2cccnc12 [Compound 7b, 7-(pyrrolidin-1-ylmethyl)-5-((4-(4-(trifluoromethyl)phenyl)-2H-1,2,3-triazol-2-yl)methyl)quinolin-8-ol]	2.4	
Cc1ccc(-c2cnn(Cc3cc(CN4CCCC4)c(O)c4ncccc34)n2)cc1 [Compound 7d, 7-(pyrrolidin-1-ylmethyl)-5-((4-(p-tolyl)-2H-1,2,3-triazol-2-yl)methyl)quinolin-8-ol]	1.6	
CCc1ccc(-c2cnn(Cc3cc(CN4CCCC4)c(O)c4ncccc34)n2)cc1 [Compound 7e, 5-((4-(4-ethylphenyl)-2H-1,2,3-triazol-2-yl)methyl)-7-(pyrrolidin-1-ylmethyl)quinolin-8-ol]	2	
O=[N+]([O-])c1ccc(-c2cnn(Cc3cc(CN4CCCC4)c(O)c4ncccc34)n2)cc1 [Compound 7f, 5-((4-(4-nitrophenyl)-2H-1,2,3-triazol-2-yl)methyl)-7-(pyrrolidin-1-ylmethyl)quinolin-8-ol]	2.4	
COc1ccc(-c2cnn(Cc3cc(CN4CCCC4)c(O)c4ncccc34)n2)cc1 [Compound 7g, 5-((4-(4-methoxyphenyl)-2H-1,2,3-triazol-2-yl)methyl)-7-(pyrrolidin-1-ylmethyl)quinolin-8-ol]	2	
N#Cc1ccc(-c2cnn(Cc3cc(CN4CCCC4)c(O)c4ncccc34)n2)cc1 [Compound 7h, 4-(2-((8-hydroxy-7-(pyrrolidin-1-ylmethyl)quinolin-5-yl)methyl)-2H-1,2,3-triazol-4-yl)benzonitrile]	3.3	
Oc1c(CN2CCCC2)cc(Cn2ncc(-c3ccccc3Br)n2)c2cccnc12 [Compound 7j, 5-((4-(2-bromophenyl)-2H-1,2,3-triazol-2-yl)methyl)-7-(pyrrolidin-1-ylmethyl)quinolin-8-ol]	1.7	
Oc1c(CN2CCCC2)cc(Cn2ncc(-c3cccc(Br)c3)n2)c2cccnc12 [Compound 7k, 5-((4-(3-bromophenyl)-2H-1,2,3-triazol-2-yl)methyl)-7-(pyrrolidin-1-ylmethyl)quinolin-8-ol]	1.7	survivin protein accumulation (western blot) (survivin [3]): reduced the accumulation of survivin protein; IC50 (OVCAR3 and OVCAR8 cells): 1.1 µM
Oc1c(CN2CCCCC2)cc(Cn2ncc(-c3ccc(Br)cc3)n2)c2cccnc12 [Compound 12a, 5-((4-(4-bromophenyl)-2H-1,2,3-triazol-2-yl)methyl)-7-(piperidin-1-ylmethyl)quinolin-8-ol]	1.4	IC50 (OVCAR3 and OVCAR8 cells): 1.1 µM
Oc1c(CN2CCCCC2)cc(Cn2ncc(-c3ccc(C(F)(F)F)cc3)n2)c2cccnc12 [Compound 12b, 7-(piperidin-1-ylmethyl)-5-((4-(4-(trifluoromethyl)phenyl)-2H-1,2,3-triazol-2-yl)methyl)quinolin-8-ol]		reduction of tumor weight (A375 xenograft tumors): approximately 32%; improvement of metabolic stability over MX-106 [4]: 1.7 fold
CCN(CC)Cc1cc(Cn2ncc(-c3ccc(C(F)(F)F)cc3)n2)c2cccnc2c1O [Compound 12d, 7-((diethylamino)methyl)-5-((4-(4-(trifluoromethyl)phenyl)-2H-1,2,3-triazol-2-yl)methyl)quinolin-8-ol]	3.1	
Oc1c(CN2CCOCC2)cc(Cn2ncc(-c3ccc(Br)cc3)n2)c2cccnc12 [Compound 12e, 5-((4-(4-bromophenyl)-2H-1,2,3-triazol-2-yl)methyl)-7-(morpholinomethyl)quinolin-8-ol]	1.7	
Oc1c(CN2CCNCC2)cc(Cn2ncc(-c3ccc(Br)cc3)n2)c2cccnc12 [Compound 14, 5-((4-(4-bromophenyl)-2H-1,2,3-triazol-2-yl)methyl)-7-(piperazin-1-ylmethyl)quinolin-8-ol]	2.6	
CC(C)c1ccc(COCc2cc(-c3ccccc3)c(O)c3ncccc23)cc1 [Compound 19a, 5-(((4-isopropylbenzyl)oxy)methyl)-7-phenylquinolin-8-ol]		apoptosis induction (cleaved-PARP, western blot) (survivin [2]; 24 h): effectively induced apoptosis; survivin protein levels at 10 μM (western blot) (survivin [2]; 24 h, 10 μM): did not show survivin downregulation; survivin protein levels (western blot) (survivin [2]; 24 h, 1, 5 and 10 μM): selectively downregulated survivin; IC50 (OVCAR3 and OVCAR8 cells): 2 µM
COCC[n+]1c2c(n(Cc3cnccn3)c1C)C(=O)c1ccccc1C2=O [YM-155]		IC50 (MDA-MB-435/LCC6MDR1): > 1 µM; IC50 (MDA-MB-435): 0.0024 ± 0.0002 µM
